Data as given in ChEMBL document CHEMBL1132073, “Synthesis of novel 4'-C-methyl-pyrimidine nucleosides and their biological activities” (Bioorg Med Chem Lett, 1999).
In brackets after ≈: the same amount, converted by molar mass.

Experiments:
CCRF-HSB-2 = assay: Compound was evaluated for the cytotoxicity against human T-cell leukemia, CCRF-HSB-2 by using MTT assay.; type: functional, cell-based
Human alphaherpesvirus 3 = assay: Compound was evaluated for the antiviral activity against Varicella-Zoster virus (VZV) Oka strain by using plaque reduction assay.; type: functional; details: read-out: ED50 (the source's name)
Human alphaherpesvirus 2 = assay: Compound was evaluated for the antiviral activity against Herpes simplex virus type 2 (HSV-2) MS strain by using plaque reduction assay.; type: functional; details: read-out: ED50 (the source's name)
Human alphaherpesvirus 1 = assay: Compound was evaluated for the antiviral activity against Herpes simplex virus type 1 (HSV-1) VR-3 strain by using plaque reduction assay.; type: functional; details: read-out: ED50 (the source's name)

`C[C@]1(CO)OC(n2cc(/C=C/Br)c(=O)[nH]c2=O)[C@H](O)[C@@H]1O` (stereo not given in full) was tested, and the IC50 (CCRF-HSB-2) was > 100 µg/mL, the EC50 (Human alphaherpesvirus 3) was 0.18 µg/mL (≈ 0.496 µM) and the EC50 (Human alphaherpesvirus 2) was 63.5 µg/mL (≈ 175 µM). It also gave an EC50 (Human alphaherpesvirus 1) of 24.4 µg/mL (≈ 67.2 µM).
In the case of `O=c1[nH]c(=O)n([C@@H]2O[C@H](CO)[C@@H](O)[C@H]2O)cc1/C=C/Br`, the IC50 (CCRF-HSB-2) is reported as > 100 µg/mL, the EC50 (Human alphaherpesvirus 3) is reported as 0.00083 µg/mL (≈ 0.00238 µM) and the EC50 (Human alphaherpesvirus 2) is reported as 62 µg/mL (≈ 178 µM). It also gave an EC50 (Human alphaherpesvirus 1) of 0.048 µg/mL (≈ 0.137 µM).
In the case of `O=c1[nH]c(=O)n([C@H]2C[C@H](O)[C@@H](CO)O2)cc1/C=C/Br` [BRIVUDINE], the IC50 (CCRF-HSB-2) is reported as > 100 µg/mL, the EC50 (Human alphaherpesvirus 3) is reported as 0.013 µg/mL (≈ 0.039 µM) and the EC50 (Human alphaherpesvirus 2) is reported as > 100 µg/mL. For the same compound, the EC50 (Human alphaherpesvirus 1) was 0.052 µg/mL (≈ 0.156 µM).
In the case of `C[C@]1(CO)O[C@@H](n2cc(/C=C/Br)c(=O)[nH]c2=O)CC1O` (single isomer, unassigned), the IC50 (CCRF-HSB-2) is reported as 0.45 µg/mL (≈ 1.3 µM), the EC50 (Human alphaherpesvirus 3) is reported as 0.00077 µg/mL (≈ 0.00222 µM) and the EC50 (Human alphaherpesvirus 2) is reported as 0.26 µg/mL (≈ 0.749 µM). It also gave an EC50 (Human alphaherpesvirus 1) of 0.0053 µg/mL (≈ 0.0153 µM).
`C[C@@]1(CO)O[C@H](n2ccc(N)nc2=O)C[C@H]1O` showed an IC50 (CCRF-HSB-2) of 0.12 µg/mL (≈ 0.497 µM), an EC50 (Human alphaherpesvirus 3) of 0.094 µg/mL (≈ 0.39 µM) and an EC50 (Human alphaherpesvirus 2) of 0.27 µg/mL (≈ 1.12 µM). The EC50 (Human alphaherpesvirus 1) was 0.071 µg/mL (≈ 0.294 µM).
